Laboratory results from ChEMBL document CHEMBL1201862, “PubChem BioAssay data set” (2004).
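In this assay, cells in 96-well plates receive the compound at five concentrations for 48 hours. Endpoints are linearly interpolated between the surrounding concentrations. GI50: concentration for 50% inhibition of growth.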 The source made the active and inactive calls. No stated cut-off is given here; in the data, active = GI50 up to about 1.1 µM and inactive = higher.

Key:
Test in all cases: NCI-60 cell line screen, 48 h
COLO 205 = tested on: COLO 205
LOX IMVI = tested on: LOX IMVI
SF-295 = tested on: SF-295
RPMI-8226 = tested on: RPMI-8226
SNB-75 = tested on: SNB-75
SK-MEL-5 = tested on: SK-MEL-5
HCC 2998 = tested on: HCC 2998
786-0 = tested on: 786-0
U-251 = tested on: U-251
ACHN = tested on: ACHN
SN12C = tested on: SN12C
OVCAR-3 = tested on: OVCAR-3
T47D = tested on: T47D
RXF 393 = tested on: RXF 393
MOLT-4 = tested on: MOLT-4
MDA-MB-231 = tested on: MDA-MB-231
SF-539 = tested on: SF-539
EKVX = tested on: EKVX
OVCAR-5 = tested on: OVCAR-5
HT-29 = tested on: HT-29
SK-OV-3 = tested on: SK-OV-3
MDA-MB-435 = tested on: MDA-MB-435
PC-3 = tested on: PC-3
TK-10 = tested on: TK-10
SK-MEL-2 = tested on: SK-MEL-2
SK-MEL-28 = tested on: SK-MEL-28
SNB-19 = tested on: SNB-19
IGROV-1 = tested on: IGROV-1
KM12 = tested on: KM12
HCT-15 = tested on: HCT-15
A549 = tested on: A549
MDA-N = tested on: MDA-N
UACC-257 = tested on: UACC-257
MCF7 = tested on: MCF7
HCT-116 = tested on: HCT-116
NCI-H522 = tested on: NCI-H522
Hs-578T = tested on: Hs-578T
NCI-H460 = tested on: NCI-H460
Malme-3M = tested on: Malme-3M
SW-620 = tested on: SW-620
CCRF-CEM = tested on: CCRF-CEM
UACC-62 = tested on: UACC-62
DU-145 = tested on: DU-145
OVCAR-4 = tested on: OVCAR-4
OVCAR-8 = tested on: OVCAR-8
M14 = tested on: M14
K562 = tested on: K562
HOP-62 = tested on: HOP-62
SF-268 = tested on: SF-268
NCI-H226 = tested on: NCI-H226
NCI/ADR-RES = tested on: NCI/ADR-RES
BT-549 = tested on: BT-549
SR = tested on: SR
CAKI-1 = tested on: CAKI-1
HL-60 = tested on: HL-60
NCI-H23 = tested on: NCI-H23
UO-31 = tested on: UO-31
HOP-92 = tested on: HOP-92

SMILES: Cc1nn(C(=O)c2ccccc2O)c2c1C(c1ccccc1)SC(=N)N2 (stereo not given)
- GI50 (COLO 205): 3.87 µM (inactive)
- GI50 (LOX IMVI): 3.1 µM (inactive)
- GI50 (SF-295): 3.74 µM (inactive)
- GI50 (RPMI-8226): 2.97 µM (inactive)
- GI50 (SNB-75): 0.311 µM (active)
- GI50 (SK-MEL-5): 3.19 µM (inactive)
- GI50 (HCC 2998): 7.69 µM (inactive)
- GI50 (786-0): 1.57 µM (inactive)
- GI50 (U-251): 2.11 µM (inactive)
- GI50 (ACHN): 0.419 µM (active)
- GI50 (SN12C): 2.25 µM (inactive)
- GI50 (OVCAR-3): 1.79 µM (inactive)
- GI50 (T47D): 5.43 µM (inactive)
- GI50 (RXF 393): > 10 µM (inactive)
- GI50 (MOLT-4): 2.75 µM (inactive)
- GI50 (MDA-MB-231): 0.811 µM (active)
- GI50 (SF-539): 0.214 µM (active)
- GI50 (EKVX): > 10 µM (inactive)
- GI50 (OVCAR-5): 6.08 µM (inactive)
- GI50 (HT-29): 5.38 µM (inactive)
- GI50 (SK-OV-3): 5.6 µM (inactive)
- GI50 (MDA-MB-435): 0.416 µM (active)
- GI50 (PC-3): 4.57 µM (inactive)
- GI50 (TK-10): 0.897 µM (active)
- GI50 (SK-MEL-2): 3.58 µM (inactive)
- GI50 (SK-MEL-28): > 10 µM (inactive)
- GI50 (SNB-19): 6.38 µM (inactive)
- GI50 (IGROV-1): 0.481 µM (active)
- GI50 (KM12): 3.53 µM (inactive)
- GI50 (HCT-15): 3.86 µM
- GI50 (A549): 0.6 µM (active)
- GI50 (MDA-N): 1.2 µM (inactive)
- GI50 (UACC-257): 2.01 µM (inactive)
- GI50 (MCF7): 2.81 µM (inactive)
- GI50 (HCT-116): 0.906 µM (active)
- GI50 (NCI-H522): 3.19 µM (inactive)
- GI50 (Hs-578T): 0.7 µM (active)
- GI50 (NCI-H460): 3.64 µM (inactive)
- GI50 (Malme-3M): 0.479 µM (active)
- GI50 (SW-620): 3.58 µM (inactive)
- GI50 (CCRF-CEM): 2.36 µM (inactive)
- GI50 (UACC-62): 0.44 µM (active)
- GI50 (DU-145): 0.627 µM (active)
- GI50 (OVCAR-4): 1.49 µM (inactive)
- GI50 (OVCAR-8): 0.867 µM (active)
- GI50 (M14): 1.69 µM (inactive)
- GI50 (K562): 0.413 µM (active)
- GI50 (HOP-62): 2.64 µM (inactive)
- GI50 (SF-268): 3.27 µM (inactive)
- GI50 (NCI-H226): 1.16 µM (inactive)
- GI50 (NCI/ADR-RES): 1.56 µM (inactive)
- GI50 (BT-549): > 10 µM (inactive)
- GI50 (SR): 2.42 µM (inactive)
- GI50 (CAKI-1): 0.547 µM (active)
- GI50 (HL-60): 1.61 µM (inactive)
- GI50 (NCI-H23): 0.836 µM (active)

SMILES: COc1cc(-c2ccccc2)cn2c1nc1ccccc12
- GI50 (COLO 205): 19.2 µM (inactive)
- GI50 (LOX IMVI): 22.3 µM (inactive)
- GI50 (RPMI-8226): 20.9 µM (inactive)
- GI50 (SNB-75): 17.6 µM (inactive)
- GI50 (SK-MEL-5): 18.5 µM (inactive)
- GI50 (HCC 2998): 15.9 µM (inactive)
- GI50 (786-0): 15.7 µM (inactive)
- GI50 (U-251): 20 µM (inactive)
- GI50 (ACHN): 20 µM (inactive)
- GI50 (SN12C): 19.8 µM (inactive)
- GI50 (UO-31): 14.8 µM (inactive)
- GI50 (OVCAR-3): 16.4 µM (inactive)
- GI50 (T47D): 20.7 µM (inactive)
- GI50 (RXF 393): 17.3 µM (inactive)
- GI50 (MOLT-4): 15.7 µM (inactive)
- GI50 (MDA-MB-231): 21.8 µM (inactive)
- GI50 (SF-539): 26.6 µM (inactive)
- GI50 (OVCAR-5): 15 µM (inactive)
- GI50 (HT-29): 17.3 µM (inactive)
- GI50 (HOP-92): 14.5 µM (inactive)
- GI50 (SK-OV-3): 23.9 µM (inactive)
- GI50 (MDA-MB-435): 18.9 µM (inactive)
- GI50 (PC-3): 18.8 µM (inactive)
- GI50 (SK-MEL-2): 22.1 µM (inactive)
- GI50 (SK-MEL-28): 17 µM (inactive)
- GI50 (SNB-19): 23.1 µM (inactive)
- GI50 (IGROV-1): 25.2 µM (inactive)
- GI50 (KM12): 17.9 µM (inactive)
- GI50 (HCT-15): 15.3 µM
- GI50 (A549): 20 µM (inactive)
- GI50 (MDA-N): 17.7 µM (inactive)
- GI50 (UACC-257): 22.7 µM (inactive)
- GI50 (MCF7): 17.1 µM (inactive)
- GI50 (HCT-116): 20.9 µM (inactive)
- GI50 (NCI-H522): 16.5 µM (inactive)
- GI50 (Hs-578T): 27.6 µM (inactive)
- GI50 (NCI-H460): 21.2 µM (inactive)
- GI50 (Malme-3M): 20.2 µM (inactive)
- GI50 (SW-620): 35 µM (inactive)
- GI50 (CCRF-CEM): 25.5 µM (inactive)
- GI50 (UACC-62): 18.7 µM (inactive)
- GI50 (DU-145): 25.6 µM (inactive)
- GI50 (OVCAR-8): 24.8 µM (inactive)
- GI50 (M14): 20.3 µM (inactive)
- GI50 (K562): 25.2 µM (inactive)
- GI50 (HOP-62): 19.9 µM (inactive)
- GI50 (SF-268): 26.1 µM (inactive)
- GI50 (NCI-H226): 17.5 µM (inactive)
- GI50 (NCI/ADR-RES): 22.8 µM (inactive)
- GI50 (BT-549): 17.8 µM (inactive)
- GI50 (SR): 29.2 µM (inactive)
- GI50 (CAKI-1): 19.6 µM (inactive)
- GI50 (HL-60): 15.6 µM (inactive)
- GI50 (NCI-H23): 35 µM (inactive)
